These results are taken from patent US10772893B2, “2-(morpholin-4-yl)-1,7-naphthyridines” (BAYER PHARMA AKTIENGESELLSCHAFT, priority 2014, dated 2020).

Bounds are passed on as bounds.

Assay in all cases: Proliferation assay, crystal violet staining
Experiment [1] deals with Caco-2 cells. Type of experiment: cell-based. The following applies: Homo sapiens, Caco-2, 96 h, 4 days incubation, read-out: Inhibition of Caco-2 cell proliferation.
Method: (§1) After 24 hours, the cells of one plate (zero plate) were dyed with crystal violet (see below), whereas the medium of the other plates was replaced with fresh culture medium (200 μl) to which the test substances were added in various concentrations (0 μM, and also in the range of 0.001-10 μM; the final concentration of the solvent dimethyl sulphoxide was 0.1 or 0.5%). The cells were incubated for 4 days in the presence of the test substances. […] After washing the fixed cells three times with water, the plates were dried at room temperature. The cells were stained by adding 100 μl/measurement point of a 0.1% strength crystal violet solution (pH adjusted to pH 3 by adding acetic acid). After washing the cells three times with water, the plates were dried at room temperature. The dye was dissolved by adding 100 μl/measurement point of a 10% strength acetic acid solution. […] The percentage change in cell growth was calculated by normalizing the measured values to the absorbance values of the zero plate (=0%) and the absorbance of the untreated (0 W) cells (=100%). The IC50 values were determined by means of a four parameter fit.
Experiment [2] relates to HeLa-MaTu-ADR cells. The experiment is classed as cell-based. The following applies: Homo sapiens, 96 h, 4 days incubation, read-out: Inhibition of HeLa-MaTu-ADR cell proliferation.
Method: as §1
Experiment [3] has as its system NCI-H460 cells. The conditions noted are these: Homo sapiens, NCI-H460, 96 h, read-out: Inhibition of NCI-H460 cell proliferation, NCI-H460 cells, 4 days incubation.
Method: as §1
Experiment [4] concerns HeLa cells. The following applies: Homo sapiens, 96 h, read-out: Inhibition of HeLa cell proliferation, HeLa cells, 4 days incubation.
Experiment [5] concerns DU145 cells. The following applies: Homo sapiens, DU-145, 96 h, read-out: Inhibition of DU145 cell proliferation, DU145 cells, 4 days incubation.
Method: as §1

In the case of `CS(=O)(=O)c1cccc(-c2cc(N3CCOCC3)nc3c(-c4cc[nH]n4)nccc23)c1` [Example 15, 4-(3-methanesulphonylphenyl)-2-(morpholin-4-yl)-8-(1H-pyrazol-3-yl)-[1,7]naphthyridine], the IC50 in experiment [1] is 1720 nM; in experiment [2] it was above 3000 nM; in experiment [3], 528 nM; in experiment [4], 1410 nM; in experiment [5], 817 nM.
Regarding `C[C@@H]1COCCN1c1cc(-c2ccc(S(C)(=O)=O)cc2)c2ccnc(-c3cc[nH]n3)c2n1` [Example 26, 4-(4-methanesulphonylphenyl)-2-((R)-3-methylmorpholin-4-yl)-8-(2H-pyrazol-3-yl)-[1,7]naphthyridine], the IC50 in experiment [1] was above 1000 nM; in experiment [2], above 1000 nM; in experiment [3], 586 nM; in experiment [4], 296 nM; in experiment [5] it was 725 nM.
With `C[C@@H]1COCCN1c1cc(C2CC2)c2ccnc(-c3cc[nH]n3)c2n1` [Example 29], the IC50 came to 577 nM in experiment [1]; 498 nM in experiment [2]; 243 nM in experiment [3]; 394 nM in experiment [4]; 291 nM in experiment [5].
As to `C[C@@H]1COCCN1c1cc(-c2ccc(S(C)(=N)=O)cc2)c2ccnc(-c3ccn[nH]3)c2n1` (stereo partly drawn) [Example 30, 4-[2-((R)-3-methylmorpholin-4-yl)-8-(2H-pyrazol-3-yl)-[1,7]naphthyridine-4-yl]phenyl-S-methylsulphoximide], the IC50 in experiment [1] is 2890 nM; in experiment [2], above 3000 nM; in experiment [3], 293 nM; in experiment [4], 512 nM; in experiment [5] it was 325 nM.
For `C[C@@H]1COCCN1c1cc(-c2cccc(S(C)(=N)=O)c2)c2ccnc(-c3ccn[nH]3)c2n1` (stereo partly drawn) [Example 31, 3-[2-((R)-3-methylmorpholin-4-yl)-8-(2H-pyrazol-3-yl)-[1,7]naphthyridine-4-yl]phenyl-S-methylsulphoximide], the IC50 in experiment [1] was above 3000 nM; in experiment [2], above 3000 nM; in experiment [3], 685 nM; in experiment [4], 1250 nM; in experiment [5], 1110 nM.
For the compound `CS(=O)(=O)c1cc(N2CCOCC2)nc2c(-c3cc[nH]n3)nccc12` [Example 32], the IC50 is above 3000 nM in experiment [1]; above 3000 nM in experiment [2]; above 3000 nM in experiment [3]; 1560 nM in experiment [4]; 1840 nM in experiment [5].
On to `N#Cc1cc(N2CCOCC2)nc2c(-c3cc[nH]n3)nccc12` [Example 34, 2-(morpholin-4-yl)-8-(1H-pyrazol-3-yl)-[1,7]naphthyridine-4-carbonitrile], for which the IC50 in experiment [1] was 4990 nM; in experiment [2], above 3000 nM; in experiment [3] it was 1630 nM; in experiment [4], 1020 nM; in experiment [5], 2390 nM.
For the compound `CC(C)Oc1cc(N2CCOCC2)nc2c(-c3cc[nH]n3)nccc12` [Example 40, 4-Isopropoxy-2-(morpholin-4-yl)-8-(1H-pyrazol-3-yl)-[1,7]naphthyridine], the IC50 in experiment [1] was found to be 1970 nM; in experiment [2], 2260 nM; in experiment [3] it was 672 nM; in experiment [4], 2720 nM; in experiment [5], 1150 nM.
On to `COc1cc(N2CCOCC2)nc2c(-c3cc[nH]n3)nccc12` [Example 44, 4-methoxy-2-(morpholin-4-yl)-8-(1H-pyrazol-3-yl)-[1,7]naphthyridine], for which the IC50 was 7690 nM in experiment [1]; above 10000 nM in experiment [2]; 2010 nM in experiment [3]; 1010 nM in experiment [4]; 4450 nM in experiment [5].
In the case of `CC(C)Oc1cc(N2CCOC[C@H]2C)nc2c(-c3cc[nH]n3)nccc12` [Example 51, 4-Isopropoxy-2-((R)-3-methylmorpholin-4-yl)-8-(1H-pyrazol-3-yl)-[1,7]naphthyridine], the IC50 in experiment [1] amounted to 2930 nM; in experiment [2] it was 1800 nM; in experiment [3], 391 nM; in experiment [4], 1230 nM; in experiment [5], 895 nM.
`c1cc2c(C3CCOCC3)cc(N3CCOCC3)nc2c(-c2cc[nH]n2)n1` [Example 60, 2-(morpholin-4-yl)-8-(1H-pyrazol-5-yl)-4-(tetrahydro-2H-pyran-4-yl)-1,7-naphthyridine]: the IC50 stood at 1980 nM in experiment [1]; 2170 nM in experiment [2]; 691 nM in experiment [3]; 998 nM in experiment [4]; 730 nM in experiment [5].
The matching figures for `Cc1nc(S(C)(=O)=O)ccc1-c1cc(N2CCOC[C@H]2C)nc2c(-c3ccn[nH]3)nccc12` [Example 73, 4-[2-methyl-6-(methylsulfonyl)pyridin-3-yl]-2-[(3R)-3-methylmorpholin-4-yl]-8-(1H-pyrazol-5-yl)-1,7-naphthyridine]: 631 nM, 1790 nM, 59 nM, 181 nM and 748 nM.
Regarding `C[C@@H]1COCCN1c1cc(-c2ccc(S(C)(=O)=O)cc2F)c2ccnc(-c3ccn[nH]3)c2n1` [Example 74, 4-[2-fluoro-4-(methylsulfonyl)phenyl]-2-[(3R)-3-methylmorpholin-4-yl]-8-(1H-pyrazol-5-yl)-1,7-naphthyridine], the IC50 in experiment [1] is above 1000 nM; in experiment [2], above 1000 nM; in experiment [3] it was above 1000 nM; in experiment [4], 203 nM; in experiment [5] it was above 1000 nM.
As to `Cc1cc(S(C)(=O)=O)ncc1-c1cc(N2CCOC[C@H]2C)nc2c(-c3ccn[nH]3)nccc12` [Example 79, 4-[4-methyl-6-(methylsulfonyl)pyridin-3-yl]-2-[(3R)-3-methylmorpholin-4-yl]-8-(1H-pyrazol-5-yl)-1,7-naphthyridine], the IC50 in experiment [1] was 868 nM; in experiment [2], 2300 nM; in experiment [3], 93.7 nM; in experiment [4], 303 nM; in experiment [5], 656 nM.
Take `Cc1ccc(-c2cc(N3CCOC[C@H]3C)nc3c(-c4ccn[nH]4)nccc23)cn1` [Example 88, 2-[(3R)-3-methylmorpholin-4-yl]-4-(6-methylpyridin-3-yl)-8-(1H-pyrazol-5-yl)-1,7-naphthyridine]: the IC50 came to 286 nM in experiment [1]; 291 nM in experiment [2]; 81.7 nM in experiment [3]; 157 nM in experiment [4]; 104 nM in experiment [5].
As to `CCS(=O)(CC)=Nc1cc(N2CCOC[C@H]2C)nc2c(-c3ccn[nH]3)nccc12` [Example 126, 4-{[diethyl(oxido)-λ^6-sulfanylidene]amino}-2-[(3R)-3-methylmorpholin-4-yl]-8-(1H-pyrazol-5-yl)-1,7-naphthyridine], the IC50 came to 340 nM in experiment [1]; 595 nM in experiment [2]; 88.4 nM in experiment [3]; 170 nM in experiment [4]; 94 nM in experiment [5].
Regarding `C[C@@H]1COCCN1c1cc(N=S2(=O)CCCC2)c2ccnc(-c3ccn[nH]3)c2n1` [Example 137, N-{2-[(3R)-3-methylmorpholin-4-yl]-8-(1H-pyrazol-5-yl)-1,7-naphthyridin-4-yl}tetrahydro-1H-1λ^4-thiophen-1-imine 1-oxide], the IC50 in experiment [1] was determined as 549 nM; in experiment [2] it was 791 nM; in experiment [3], 153 nM; in experiment [4], 383 nM; in experiment [5], 146 nM.
On to `C[C@@H]1COCCN1c1cc(N2CCOCC2)c2ccnc(-c3ccn[nH]3)c2n1` [Example 145, 2-[(3R)-3-methylmorpholin-4-yl]-4-(morpholin-4-yl)-8-(1H-pyrazol-5-yl)-1,7-naphthyridine], for which the IC50 in experiment [1] came to 492 nM; in experiment [2] it was 522 nM; in experiment [3], 90.6 nM; in experiment [4], 248 nM; in experiment [5], 30.5 nM.
In the case of `CC(C)S(=O)(=O)c1ccc(-c2cc(N3CCOC[C@H]3C)nc3c(-c4ccn[nH]4)nccc23)cc1` [Example 151, 4-[4-(isopropylsulfonyl)phenyl]-2-[(3R)-3-methylmorpholin-4-yl]-8-(1H-pyrazol-5-yl)-1,7-naphthyridine], the IC50 in experiment [1] came to 2050 nM; in experiment [2], 2150 nM; in experiment [3] it was 673 nM; in experiment [4] it was 921 nM; in experiment [5] it was 1900 nM.
On to `C[C@@H]1COCCN1c1cc(N2CCN(C)C(=O)C2)c2ccnc(-c3ccn[nH]3)c2n1` [Example 157, 1-methyl-4-{2-[(3R)-3-methylmorpholin-4-yl]-8-(1H-pyrazol-5-yl)-1,7-naphthyridin-4-yl}piperazin-2-one], for which the IC50 was above 3000 nM in experiment [1]; above 3000 nM in experiment [2]; above 3000 nM in experiment [3]; 872 nM in experiment [4]; above 3000 nM in experiment [5].
Turning to `CC(C)[S+]([O-])c1cc(N2CCOCC2)nc2c(-c3ccn[nH]3)nccc12` (centres unmarked) [Example 196, 2-(morpholin-4-yl)-4-[propan-2-ylsulfinyl]-8-(1H-pyrazol-5-yl)-1,7-naphthyridine], the IC50 in experiment [1] is 869 nM; in experiment [2] it was above 3000 nM; in experiment [3] it was 291 nM; in experiment [4], 1020 nM; in experiment [5] it was 144 nM.
As for `C[C@@H]1COCCN1c1cc(OCCCS(C)(=O)=O)c2ccnc(-c3ccn[nH]3)c2n1` [Example 197, 2-[(3R)-3-methylmorpholin-4-yl]-4-[3-(methylsulfonyl)propoxy]-8-(1H-pyrazol-5-yl)-1,7-naphthyridine], the IC50 in experiment [1] was above 3000 nM; in experiment [2], above 3000 nM; in experiment [3], 516 nM; in experiment [4], 1010 nM; in experiment [5], 129 nM.
